Counter-ions that a name gives are not always drawn. *1 amine or outer side, *2 acyl side, *3 side chain or, on linkers, in order; H or OH if unused. Where a SMILES comes first, the peptide text is derived from it. Bridges are numbered along the chain shown (N, C = ends). [ ]: non-standard residue; d: D form. The star is where a group is joined. pTerphenylCO(4''-OnC5H11) = CCCCCOc1ccc(-c2ccc(-c3ccc(C(=O)*)cc3)cc2)cc1; Orn(4R-OH,5R-OH) = O=C([C@H](C[C@@H](O)[C@@H](O)N[*:3])N[*:1])[*:2]; hTyr(3S-OH,4S-OH) = N[C@H](C(=O)O)[C@H](O)[C@@H](O)c1ccc(O)cc1; Pro(3S-OH,4S-Me) = C[C@H]1CN[C@H](C(=O)O)[C@H]1O; Hyp = O=C(O)[C@@H]1C[C@@H](O)CN1
Legend:
[1] = test system: FMAL-actin plus TMR-cC0-C2; assay: Selleck library HTS, 473 nm excitation (FLT of FMAL-actin with TMR-cC0-C2, FLT-FRET); format: binding, human; details: for 473-nm Δτ, Repeat 1 / 473-nm Δτ, Repeat 2: initial screen, 30 μM compound; for 473-nm z-score (based on avg Δτ): robust z-score, hit threshold ±4, 30 μM compound
Protocol: (§1) Fluorescence lifetime (FLT) measurements were acquired using a high-throughput FLT plate reader (Fluorescence Innovations, Inc) ([14], [27]), provided by Photonic Pharma LLC. […] The observed waveforms were analyzed as described previously ([15], [28]).
(§2) In total, 50 nl of each solution was dispensed in DMSO using an automated Echo 550 acoustic liquid dispenser (Labcyte). Compounds were formatted into the assay plates, at a final concentration of 30 μM, with the first two and second to last columns loaded with DMSO only (compound-free controls). In the final column, 30 μM of suramin was loaded as a positive control (tool compound). These assay plates were then heat-sealed using a PlateLoc Thermal Microplate Sealer (Agilent Technologies) and stored at −20 °C. Before screening, compound plates were equilibrated to room temperature (∼25 °C). […] Plates were incubated at room temperature for 60 min before recording the data with the fluorescence lifetime plate reader.
After fitting the waveforms with a single exponential decay to quantify donor FLT, the change in FLT (Δτ) was computed by performing a moving median subtraction in the order the plate was scanned with a window size of half a plate row […]. The reasons for this are twofold. Firstly, plate gradients are often observed due to the heating of the digitizer during acquisition.
To account for the necessity to correct for plate gradients in the computation of E, the median τDMSO prior to the application of the moving median correction was added to each well’s Δτ value to recover a rescaled value of τ.

[2] = test system: TMR-fC1-C2 (C1-C2 of fast skeletal MyBP-C); assay: FLT-TMR concentration-response assay, fC1-C2; format: binding; details: 60 μM compound
Protocol: (§3) Compounds identified as initial hits were further examined to determine the concentration–response curves for seven conditions ([1]): FMAL-actin alone identified actin-binding compounds that alter the FLT of FMAL-actin ([2]).
as §1
(§4) The primary hits were dissolved in DMSO to make a 10 mM stock solution, which was serially diluted in 96-well mother plates. Hits were screened at eight concentrations (0.5–100 μM). […] Compounds (1 μl) were transferred from the mother plates into 384-well plates using a Mosquito HV liquid handler (TTP Labtech Ltd, Hertfordshire, UK). The same procedure of dispensing as for the pilot screening was applied in the concentration-response assays. Concentration dependence of the FLT-FRET (E/EDMSO) or FLT-TMR (Δτ) change data was fit to a Hill equation only under certain conditions to help guide the eye (Fig. 4).

[3] = test system: TMR-cC0-C2 (C0-C2 fragment of human cMyBP-C); assay: FLT-TMR concentration-response assay (FLT of TMR on cC0-C2, no actin); format: binding; details: for cC0-C2/cC0-C2#P (ratio of FLT changes) / cC0-C2 FLT change (% change from DMSO, FLT of TMR-MyBP-C): 60 μM compound
Protocol: as §3, §1, §4

[4] = test system: PKA-phosphorylated TMR-cC0-C2 (cC0-C2#P); assay: FLT-TMR concentration-response assay, PKA-phosphorylated cC0-C2; format: binding, human; details: 60 μM compound
Protocol: as §3, §1, §4

TMR-cC0-C2 = assay: Selleck library HTS, 532 nm excitation (FLT of TMR-cC0-C2 in presence of FMAL-actin); format: binding, human; details: for 532-nm Δτ, Repeat 1 / 532-nm Δτ, Repeat 2: initial screen, 30 μM compound; for 532-nm z-score (based on avg Δτ): robust z-score, hit threshold ±4, 30 μM compound
Protocol: as §1, §2
Hits that exceeded the z-score hit criteria in the donor-only screen were excluded from consideration. To remove compounds with confounding fluorescence properties, a similarity index (SI, specifically the cosine distance, Equation 5) was computed using data from the SUPR instrument by comparing a region (500–540 nm) of the donor-only spectrum (I^(a)) for each well to that of the plate-wide average DMSO spectrum (I^(b)) in the same wavelength band ([29]). Compounds that exceeded an SI robust z-score of 4 were deemed likely fluorescent compounds and removed from consideration.(5) SI=1−∑Ii(a).Ii(b)/∑Ii(a).Ii(a)∑Ii(b).Ii(b)

[5] = test system: FMAL-actin/TMR-cC0-C2 interaction; assay: FLT-FRET concentration-response assay, FMAL-actin plus TMR-cC0-C2; format: binding, human; details: unphosphorylated cC0-C2
Protocol: as §3, §1, §4

[6] = listed as Erlotinib HCl (OSI-744)

| SMILES | 473-nm Δτ, Repeat 1 [1] [ns] | 473-nm Δτ, Repeat 2 [1] [ns] | 473-nm z-score (based on avg Δτ) [1] | cC0-C2/fC1-C2 (ratio of FLT changes) [2] | fC1-C2 FLT change (% change from DMSO, FLT of TMR-MyBP-C) [2] [%] | cC0-C2/cC0-C2#P (ratio of FLT changes) [3] | cC0-C2 FLT change (% change from DMSO, FLT of TMR-MyBP-C) [3] [%] | cC0-C2#P FLT change (% change from DMSO, FLT of TMR-MyBP-C) [4] [%] | 532-nm Δτ, Repeat 1 (TMR-cC0-C2) [ns] | 532-nm Δτ, Repeat 2 (TMR-cC0-C2) [ns] | 532-nm z-score (based on avg Δτ) (TMR-cC0-C2) | further results |
| --- | --- | --- | --- | --- | --- | --- | --- | --- | --- | --- | --- | --- |
| CC1(C)CCC(C)(C)c2cc(NC(=O)c3ccc(C(=O)O)cc3)ccc21 [Tamibarotene] | 0.075 | 0.067 | 4.00 | 0.9 | 5.9 | 0.7 | 5.2 | 7.2 | 0.075 | 0.106 | 5.55 |  |
| O=C(O)[C@H]1O[C@@H](Oc2cc3oc(-c4ccc(O)cc4)cc(=O)c3c(O)c2O)[C@H](O)[C@@H](O)[C@@H]1O [Scutellarin] | 0.142 | 0.076 | 6.15 | 1.0 | −9.5 | 1.0 | −9.1 | −8.7 | -0.111 | -0.145 | -7.79 |  |
| CCCCCOc1ccc(-c2ccc(-c3ccc(C(=O)N[C@H]4C[C@@H](O)[C@@H](O)NC(=O)[C@@H]5[C@@H](O)[C@@H](C)CN5C(=O)[C@H]([C@@H](C)O)NC(=O)[C@H]([C@H](O)[C@@H](O)c5ccc(O)cc5)NC(=O)[C@@H]5C[C@@H](O)CN5C(=O)[C@H]([C@@H](C)O)NC4=O)cc3)cc2)cc1 [Anidulafungin] ({pTerphenylCO(4''-OnC5H11)}-[Orn(4R-OH,5R-OH)]T[Hyp][hTyr(3S-OH,4S-OH)]T[Pro(3S-OH,4S-Me)]; lactam 1-C) | 0.014 | 0.008 | 0.67 | 0.6 | 53.0 | 0.7 | 32.1 | 43.3 | 0.403 | 0.441 | 25.80 |  |
| C#Cc1cccc(Nc2ncnc3cc(OCCOC)c(OCCOC)cc23)c1 [Erlotinib HCl] |  |  |  | 1.1 | 11.1 | 0.8 | 11.8 | 13.9 |  |  |  | 473-nm Δτ, Repeat 1 [1, 6]: -0.040 ns; 473-nm Δτ, Repeat 2 [1, 6]: -0.010 ns; 473-nm z-score (based on avg Δτ) [1, 6]: -1.36; 532-nm Δτ, Repeat 1 (TMR-cC0-C2; [6]): 0.138 ns; 532-nm Δτ, Repeat 2 (TMR-cC0-C2; [6]): 0.020 ns; 532-nm z-score (based on avg Δτ) (TMR-cC0-C2; [6]): 4.88 |
| CCc1c(Cl)c(O)c(Cl)c(O)c1C(=O)O[C@H]1[C@H](O)[C@H](OC)[C@H](OC/C2=C\C=C\C[C@H](O)/C(C)=C/[C@H](CC)[C@@H](O[C@@H]3OC(C)(C)[C@@H](OC(=O)C(C)C)[C@H](O)[C@@H]3O)/C(C)=C/C(C)=C/C[C@@H]([C@@H](C)O)OC2=O)O[C@@H]1C [Fidaxomicin] | 0.057 | 0.084 | 3.98 | 1.2 | −4.3 | 10.4 | −5.2 | −0.5 | -0.001 | -0.028 | -0.86 | difference in effect on TMR FLT between unphosphorylated and phosphorylated TMR-cC0-C2 ([3]; from Table 3): 10.4 fold |
| O=C(Nc1ccc(Cl)cc1)Nc1ccc(Cl)c(Cl)c1 [Triclocarban] | -0.128 | -0.042 | -4.72 | 0.5 | 22.2 | 0.6 | 11.6 | 18.2 | 0.374 | 0.415 | 24.12 |  |
| CCCCCCCCCCCCCCCC(=O)O[C@@H]1[C@@H](O)[C@@H](O)[C@@H]([C@H](NC(=O)[C@@H]2C[C@@H](CCC)CN2C)[C@H](C)Cl)O[C@@H]1SC.Cl [Clindamycin palmitate HCl] | -0.304 | -0.358 | -18.47 |  |  |  | −12.7 |  | -0.075 | -0.094 | -5.12 |  |
| CCCCNc1ccc(C(=O)OCCOCCOCCOCCOCCOCCOCCOCCOCCOC)cc1 [Benzonatate] | 0.108 | -0.001 | 3.05 |  |  |  |  |  | -0.101 | -0.124 | -6.82 | effect on FLT of TMR-cC0-C2 (in words) ([3]; concentration-response, no actin): did not; effect on FLT of TMR-cC0-C2 in the initial screen (in words) (TMR-cC0-C2; both replicates, actin present): strongly reduced |
| COc1nc2ccc(Br)cc2cc1[C@@H](c1ccccc1)[C@@](O)(CCN(C)C)c1cccc2ccccc12.O=C(O)/C=C/C(=O)O [Bedaquiline fumarate] | -0.324 | -0.412 | -20.57 | 0.7 | 6.7 | 0.7 | −4.5 | −6.5 | -0.009 | -0.105 | -3.45 |  |
| C[C@@H]1O[C@@H](OC[C@H]2O[C@@H](Oc3c(-c4ccc(OCCO)c(OCCO)c4)oc4cc(OCCO)cc(O)c4c3=O)[C@H](O)[C@@H](O)[C@@H]2O)[C@H](O)[C@H](O)[C@H]1O [Troxerutin] | -0.024 | -0.024 | -1.32 | 1.0 | 6.0 | 0.8 | 6.1 | 7.3 | 0.074 | 0.088 | 4.99 |  |
| Cc1cn(-c2cc(NC(=O)c3ccc(C)c(Nc4nccc(-c5cccnc5)n4)c3)cc(C(F)(F)F)c2)cn1.Cl [Nilotinib hydrochloride] | -0.063 | -0.031 | -2.59 | 0.6 | 15.6 | 0.7 | 10.1 | 14.1 | 0.121 | 0.105 | 6.94 |  |
| Cc1ccc(Nc2c(F)cccc2Cl)c(CC(=O)O)c1 [Lumiracoxib] | 0.093 | 0.064 | 4.45 |  |  |  |  |  | -0.054 | -0.036 | -2.72 | effect on FLT-FRET / binding between FMAL-actin and TMR-cC0-C2 (in words) [5]: decrease |
| CCN(CC)CCCC(C)Nc1ccnc2cc(Cl)ccc12 (stereo not shown) [Chloroquine phosphate] | -0.042 | -0.069 | -3.07 |  | 1.9 |  | 2.5 |  | 0.311 | 0.320 | 19.30 |  |
